The target of test [1] is human recombinant D1 receptor (Homo sapiens, UniProt P21728). As to the kind of experiment: D1 cAMP assay. Type of test: cell-based. The protocol: The ability of the compounds to either stimulate or inhibit the D1 receptor mediated cAMP formation in CHO cells stably expressing the human recombinant D1 receptor was measured as follows. Cells were seeded in 96-well plates at a concentration of 11000 cells/well 3 days prior to the experiment. On the day of the experiment the cells were washed once in preheated G buffer (1 mM MgCl2, 0.9 mM CaCl2, 1 mM IBMX (3-i-butyl-1-methylxanthine) in PBS (phosphate buffered saline)) and the assay was initiated by addition of 100 micro-L of a mixture of 30 nM A68930 and test compound diluted in G buffer (antagonism) or test compound diluted in G buffer (agonism). The cells were incubated for 20 minutes at 37° C. and the reaction was stopped by the addition of 100 micro-L S buffer (0.1 M HCl and 0.1 mM CaCl2) and the plates were placed at 4° C. for 1 h. 68 micro-L N buffer (0.15 M NaOH and 60 mM NaOAc) was added and the plates were shaken for 10 minutes. 60 micro-1 of the reaction were transferred to cAMP FlashPlates (DuPont NEN) containing 40 micro-L 60 mM Sodium acetate pH 6.2 and 100 micro-L IC mix (50 mM Sodium acetate pH 6.2, 0.1% sodium azide, 12 mM CaCl2 1% BSA (bovine serum albumin) and 0.15 micro-Ci/mL ^125I-cAMP) were added. Following an 18 h incubation at 4° C. the plates were washed once and counted in a Wallac TriLux counter.
human recombinant D1 receptor, sequence (P21728 whole entry): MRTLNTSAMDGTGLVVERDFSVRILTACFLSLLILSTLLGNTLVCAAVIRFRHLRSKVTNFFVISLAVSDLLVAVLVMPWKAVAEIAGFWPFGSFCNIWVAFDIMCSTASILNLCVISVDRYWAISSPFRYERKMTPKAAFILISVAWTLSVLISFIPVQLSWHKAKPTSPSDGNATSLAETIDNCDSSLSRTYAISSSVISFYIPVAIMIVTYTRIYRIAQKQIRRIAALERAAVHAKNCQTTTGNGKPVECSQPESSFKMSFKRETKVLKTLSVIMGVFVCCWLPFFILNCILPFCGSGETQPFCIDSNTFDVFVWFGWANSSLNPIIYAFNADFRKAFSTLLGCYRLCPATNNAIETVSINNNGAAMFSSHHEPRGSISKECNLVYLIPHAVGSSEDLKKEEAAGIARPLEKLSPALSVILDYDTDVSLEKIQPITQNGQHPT
On the technique in general: cAMP levels reflect the balance of adenylyl cyclase and phosphodiesterase activity.

For a further test, the target named is T1, human D2 receptor (Homo sapiens, UniProt P14416).
T1 construct: expressed in transfected cells; host or cells: CHO cells
T1 sequence (P14416 whole entry): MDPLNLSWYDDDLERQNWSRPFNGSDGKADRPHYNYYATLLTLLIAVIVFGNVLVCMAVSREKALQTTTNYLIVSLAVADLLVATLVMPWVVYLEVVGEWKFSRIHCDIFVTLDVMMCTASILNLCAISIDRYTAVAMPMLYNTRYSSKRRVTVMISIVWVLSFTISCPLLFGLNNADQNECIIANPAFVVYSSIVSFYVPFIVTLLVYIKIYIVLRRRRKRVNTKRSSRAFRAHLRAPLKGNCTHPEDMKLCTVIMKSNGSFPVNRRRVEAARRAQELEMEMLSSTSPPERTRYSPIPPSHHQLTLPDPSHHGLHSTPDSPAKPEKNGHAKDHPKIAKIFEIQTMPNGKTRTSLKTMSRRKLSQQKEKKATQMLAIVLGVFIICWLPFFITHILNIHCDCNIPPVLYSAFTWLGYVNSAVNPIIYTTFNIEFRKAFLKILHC
As to the kind of experiment: D2 cAMP assay. It counts as cell-based. The protocol:
The ability of the compounds to either stimulate or inhibit the D2 receptor mediated inhibition of cAMP formation in CHO cells transfected with the human D2 receptor was measure as follows. Cells were seeded in 96 well plates at a concentration of 8000 cells/well 3 days prior to the experiment. On the day of the experiment the cells were washed once in preheated G buffer (1 mM MgCl2, 0.9 mM CaCl2, 1 mM IBMX in PBS) and the assay was initiated by addition of 100 micro-1 of a mixture of 1 micro-M quinpirole, 10 microM forskolin and test compound in G buffer (antagonism) or 10 micro-M forskolin and test compound in G buffer (agonism). The cells were incubated 20 minutes at 37° C. and the reaction was stopped by the addition of 100 micro-1 S buffer (0.1 M HCl and 0.1 mM CaCl2) and the plates were placed at 4° C. for 1 h. 68 micro-L N buffer (0.15 M NaOH and 60 mM Sodium acetate) were added and the plates were shaken for 10 minutes. 60 micro-L of the reaction were transferred to cAMP FlashPlates (DuPont NEN) containing 40 micro-L 60 mM NaOAc pH 6.2 and 100 micro-L IC mix (50 mM NaOAc pH 6.2, 0.1% Sodium azide, 12 mM CaCl2, 1% BSA and 0.15 micro-Ci/ml ^125I-cAMP) were added. Following an 18 h incubation at 4° C. the plates were washed once and counted in a Wallac TriLux counter.

Where [2] appears, read: cAMP formation in CHO cells stably expressing the human recombinant D1 receptor, read-out: D1 EC 50.
Setting [3] is: inhibition of forskolin-stimulated cAMP formation in CHO cells transfected with the human D2 receptor, read-out: D2 EC 50.

Each structure is given as a SMILES string. Where a name gives a salt, the structure may show the parent alone. Read-outs that look alike come from different tables or passages of the source.

As to `Oc1cccc2c1C[C@@H]1OCCN(CC3CC3)[C@H]1C2` [Example 5d2, (4aS,10aS)-4-cyclo-Propylmethyl-3,4,4a,5,10,10a-hexahydro-2H-naphtho[2,3-b][1,4]oxazin-9-ol hydrochloride], the EC50 in test [1] is greater than 10000 nM; at human D2 receptor it was 1400 nM.

Regarding `CCCN1C[C@H](C)O[C@@H]2Cc3c(O)cccc3C[C@H]21` [Example 5k, (2S,4aR,10aR)-2-Methyl-4-n-propyl-3,4,4a,5,10,10a-hexahydro-2H-naphtho[2,3-b][1,4]oxazin-9-ol trifluoroacetate], the EC50 is 180 nM in test [1] and 2 nM at human D2 receptor.

As to `CCCN1CCO[C@@H]2Cc3c(ccc(O)c3O)C[C@H]21` [Example 7, (4aR,10aR)-4-n-Propyl-3,4,4a,5,10,10a-hexahydro-2H-naphtho[2,3-b][1,4]oxazine-8,9-diol trifluoroacetate], the EC50 in test [1] worked out at 200 nM; at human D2 receptor, 0.15 nM.

As for `CCCN1C[C@H](Cn2ccnc2)O[C@@H]2Cc3c(cccc3OC)C[C@H]21` [Example 3e, (2R,4aR,10aR)-2-Imidazol-1-ylmethyl-9-methoxy-4-n-propyl-3,4,4a,5,10,10a-hexahydro-2H-naphtho[2,3-b][1,4]oxazine], the figures for the EC50 (in test [1]; on human D2 receptor) were 5800 nM and 30 nM, respectively.

Regarding `CCCN1CCO[C@@H]2Cc3c(ccc4c3OCO4)C[C@H]21` [Example 8c, (6aR,10aR)-7-n-Propyl-6a,7,8,9,10a,11-hexahydro-6H-1,3,10-trioxa-7-aza-cyclo-penta[a]anthracene trifluoroacetate], the EC50 in test [1] (setting [2]) is greater than 10000 nM; at human D2 receptor (setting [3]) it was 140 nM.

For `CCCN1C[C@@H](CSC)O[C@@H]2Cc3c(cccc3OC)C[C@H]21` [Example 3c, (2S,4aR,10aR)-9-Methoxy-2-methylsulfanylmethyl-4-n-propyl-3,4,4a,5,10,10a-hexahydro-2H-naphtho[2,3-b][1,4]oxazine], the EC50 was greater than 10000 nM in test [1] (setting [2]) and 110 nM at human D2 receptor (setting [3]).

Source of the values: US8067410B2, “Phenolic and catecholic amines and prodrugs thereof” (H. Lundbeck A/S, priority 2008, dated 2011).
